Patent US20090209620A1, “Direct Reversal Of The Suppressive Function Of CD4+Regulatory T Cells Via Toll-Like Receptor 8 Signaling” (priority 2005, published 2009)
“Also recorded” adds a separate entry of the source. In the oligonucleotide strings, read from the 5' end, every base follows the letter of its sugar. An asterisk marks phosphorothioate; unmarked linkages are phosphodiester. Other units and linkages are bracketed, terminal groups are in braces. A string of capitals states the bases alone. d = 2'-deoxy (DNA)

Tests used:
[1] = test system: CD4+ Treg cells (Treg102, Treg164); test: Proliferation assay without DCs: Treg suppression of naive CD4+ T cell proliferation, anti-CD3-coated plates; assay type: cell-based, human; conditions: absence of DCs; anti-CD3-coated plates; oligonucleotides 3 ug/ml in medium
Text: (§1) Establishing Treg cell lines and purifying natural CD4^+ CD25^+ Treg cells CD4^+ Treg clones were established from CD4^+ tumor-infiltrating lymphocytes (TIL102 and TIL164) and maintained in RPMI 1640 medium containing 10% human AB serum and recombinant IL-2 (300 IU/ml) using methods well known in the art (See, e.g., H. Y. Wang et al., Immunity 20, 107-118 (2004)). Treg clones derived from TIL102 or TIL164 cells were pooled and designated Treg102 or Treg164. Naturally occurring CD4^+ CD25^+ Treg cells were obtained by sorting CD4^+ T cell populations from fresh PBMCs after staining with anti-CD4 and anti-CD25 antibodies. To obtain optimal expansion, the OKT3 expansion method was performed using methods well known in the art (See, e.g., H. Y. Wang et al., Immunity 20, 107-118 (2004)). T cell clones were maintained at a low IL-2 concentration (300 IU/ml). Melanoma cell lines and EBV-transformed B-cell lines used in this study were cultured in RPMI 1640 medium containing 10% FCS. Human embryonic kidney (HEK) 293 and Epstein-Barr virus (EBV)-transformed B cell lines were maintained in RPMI 1640 with 10% fetal calf serum (FCS).
B. Proliferation assay without DCs: 1×10^5 näive CD4 T cells were cultured with regulatory T cells at different ratios (1: 0.2, 1:0.1 and 1:0.05) in anti-CD3 mAb-coated (2 ug/ml) 96-well plates in the presence or absence of the following TLR ligands or cytokines: CpG-A (3 ug/ml), CpG-B (3 ug/ml), LPS (100 ng/ml), TNF.-α (20 ng/ml), IFN-α (100 ng/ml), or IL-6 (100 ng/ml). After 56 h of culture, [3H]thymidine was added at a final concentration of 1 uCi/well, followed by an additional 16 h of culture. The incorporation of [^3H]thymidine was measured with a liquid scintillation counter.
Näive CD4^+ T cell proliferation experiments were performed similar to those in FIG. 1A, but in the absence of DCs. […] The reversal effect of CpG-A (SEQ ID NO: 1) contrasts with the failure of CpG-B (SEQ ID NO: 2), LPS, TNF-α, IL-6 or IFN-α to block the suppressive activity of CD4^+ Treg cells against naive CD4^+ T cells (FIG. 1B).
To further define the CpG-A (SEQ ID NO: 1) sequences responsible for the observed reversal effect, CpG-NG (SEQ ID NO: 5) and Poly-G10 (SEQ ID NO: 6), were tested for their ability to reverse the suppressive function of Treg cells. Naive CD4^+ T cells were mixed with CD4^+ Treg cells in anti-CD3 antibody-coated 96-wells with 200 μl of medium containing CpG-NG (SEQ ID NO: 5), CpG-A (SEQ ID NO: 1) or Poly-G10 (SEQ ID NO: 6). The proliferation assay was conducted as described in FIG. 1. […] For the experiments shown in FIG. 2B, naive CD4^+ T cells were mixed with CD4^+ Treg cells in anti-CD3 antibody-coated 96-wells with 200 μl of medium containing Poly-A10 (SEQ ID NO: 7), Poly-T10 (SEQ ID NO: 9) or Poly-C10 (SEQ ID NO: 8), while the Poly-G10 (SEQ ID NO: 6) oligonucleotides served as a positive control.
A series of oligonucleotides with decreasing numbers of guanosine nucleosides was constructed to determine the minimal number required for the reversal effect. For the experiments in FIG. 2C, CD4^+ T cells were mixed with CD4^+ Treg cells in anti-CD3 antibody-coated 96-wells containing medium with protected phosphorothioate linked guanosine nucleoside containing oligonucleotides of various lengths, while the unprotected five guanosines (SEQ ID NO: 10) served as a control.

586mel human tumor cells = test: Human 586mel tumor model in Rag1-/- mice with adoptive transfer of TIL586 and Treg102 cells; assay type: in vivo; conditions: 586mel s.c. day 0; CD8+ TIL586 plus Treg102 cells with oligonucleotide on day 3; n=6 mice per group
Experimental: Human 586mel tumor cells (5×106) in 100 μl of buffered saline were subcutaneously injected into Rag1^−/− mice (lacking T and B cells) or Rag 2 ^−/− γC ^−/− mice (lacking T, B and NK cells) on day 0. Tumor-specific CD8^+ TIL586 cells (2.5×107), which recognize and kill 586mel cells, were injected intravenously on day 3 with or without Treg102 cells (3×106) pretreated with Poly-G10 or Poly-T10. Tumor size was measured with calipers every 2-3 days. Tumor volume was calculated on the basis of two-dimensioned measurements. Tumor growth curves were compared with the Wilcoxon rank-sum test.
The data in FIG. 4A-B confirms that TLR8 serves as a receptor for synthetic guanosine containing oligonucleotides and natural ssRNA40 and ssRNA33 ligands derived from HIV-1 virus, and that its activation in endosomes by synthetic DNA or ssRNA ligands triggers a signaling pathway that can reverse the suppressive function of Treg cells. To study the guanosine containing oligonucleotide induced reversal of Treg cell function in vivo, a human tumor model was established by subcutaneously injecting 586mel human tumor cells into Rag1^−/− (T and B cell deficient) mice. […] Tumor volumes were measured and presented as mean±SD (n=6 mice per group). P value was determined between groups as indicated. […]

[2] = test system: naturally occurring CD4+ CD25+ Treg cells; test: Reversal of suppressive function of naturally occurring CD4+CD25+ Treg cells (proliferation assay); assay type: cell-based; conditions: sorted from fresh human PBMCs; anti-CD3-coated wells
Text: as §1, with “Melanoma cell lines and EBV-transformed B-cell lines used in this study were cultured in RPMI 1640 medium containing 10% FCS. Human embryonic kidney (HEK) 293 and Epstein-Barr virus (EBV)-transformed B cell lines were maintained in RPMI 1640 with 10% fetal calf serum (FCS).” left out
The expression of CD4, CD25 and GITR on Treg cells was determined by FACS analysis after staining with specific antibodies (purchased from R&D Systems and BD Biosciences). […] After 3 days in culture, the cells were analyzed by FACS gating on the CFSE-labeled cells. […]
FIG. 2E: Both CD4^+ CD25^+ and CD25^− T cells were sorted after staining of freshly isolated human CD4^+ T cells with anti-CD4 and anti-CD25 antibodies. The purity of the sorted T cells was determined by FACS. […]

[3] = test system: antigen-specific Treg102 and Treg164 cells; test: TLR ligand assays: reversal of Treg suppression of naive CD4+ T cell proliferation; assay type: cell-based, human
Experimental: Näive CD4 T+cells were purified from PBMCs by using microbeads (Miltenvi Biotec). Näive CD4^+ T cells ([…]) were cultured with regulatory T cells at a ratio of 10:1 in OKT3 (2 ug/ml)-coated, U bottomed 96-well plates containing the following ligands: LPS (100 ng/ml), imiquimod (10 μg/ml), loxoribine (500 μM), poly(I:C) (25 μg/ml), ssRNA40/LyoVec (3 μg/ml), ssRNA33/LyoVec (3 μg/ml), pam3CSK4 (200 ng/ml) and flagellin (10 μg/ml) were purchased from Invivogene (San Diego, Calif.), while CpG-A (3 μg/ml), CpG-B (3 μg/ml) and Poly-G oligonucleotides (3 μg/ml) were synthesized in Integrated DNA Technologies, Inc (Coralville, Iowa). Functional assays were identical to those described above.
If the TLR8-MyD88-IRAK4 signaling pathway is necessary and sufficient for direct reversal of the suppressive function of Treg cells, it should be possible to produce that effect with natural ligands for human TLR8. For FIG. 4A-B, naive CD4^+ T cells were mixed with Treg102, Treg164 or naturally occurring CD4^+ CD25^+ Treg cells in anti-CD3 antibody-coated wells in the presence of different TLR ligands. Data are presented as means±SD and represent results from three independent experiments.

[4] = test system: CD4+ Treg cells (Treg102, Treg164); test: Proliferation assay with dendritic cells: Treg suppression of naive CD4+ T cell proliferation ([3H]thymidine); assay type: cell-based, human; conditions: with DCs; LPS 100 ng/ml, IL-6 100 ng/ml, IFN-α 100 ng/ml
Text: as §1
A. Proliferation assay with Dendritic Cells (DCs): Näive CD4^+ T cells were purified from PBMCs using microbeads (Miltenvi Biotec). DCs were generated from PBMC-derived monocytes in the presence of IL-4 (500 ng/ml) and GM-CSF (800 ng/ml) for 7 days. 1×105 näive CD4^+ T cells were cultured with regulatory T cells at different ratios (1: 0.2, 1:0.1 and 1:0.05) in 200 ul of medium containing 2×104 of DCs and anti-CD3 antibody (100 ng/ml) plus one of the following TLR ligands or cytokines: CpG-A (3 ug/ml), CpG-B (3 ug/ml), LPS (100 ng/ml), TNF.-α (20 ng/ml), IFN-α (100 ng/ml), or IL-6 (100 ng/ml). After 56 h of culture, [3H]thymidine was added at a final concentration of 1 uCi/well, followed by an additional 16 h. of culture. The incorporation of [^3H]thymidine was measured with a liquid scintillation counter, using methods well known in the art (See, e.g., M. K. Levings et al., J. Exp. Med. 196, 1335-46 (2002)). All experiments were performed in triplicate.
Two CD4^+ Treg cell lines, designated Treg102 and Treg164, were generated with a panel of Treg cell clones derived from TIL102 and TIL164 cells. […] A functional proliferation assay was employed to examine whether CpG (a TLR9 ligand), LPS (a TLR4 ligand) or the cytokines IL-6 or IFN-α could regulate the suppressive activity of antigen specific human CD4^+ Treg cells in the presence of DCs. […]

| Molecule | reversal of Treg cell-mediated suppression of naive CD4+ T cell proliferation [1] | reversal of suppressive function of naturally occurring CD4+CD25+ Treg cells [2] | restoration of proliferative ability of naive CD4+ T cells in the presence of CD4+ Treg cells [4] | further results |
| --- | --- | --- | --- | --- |
| Poly-T10: control oligonucleotide with protected phosphorothioate backbone (DNA TTTTTTTTTT) | failed to reverse the suppressive function of Treg cells; also recorded: lacked the ability to reverse the suppressive activity of Treg cells | – | – | tumor growth / antitumor immunity (586mel human tumor cells): grew faster than in mice receiving 586mel cells alone |
| CC(C)Cn1cnc2c(N)nc3ccccc3c21 [Imiquimod] | – | little or no effect | – | reversal of suppressive function of antigen-specific Treg cells ([3]; Treg102 and Treg164, naive T:Treg 10:1, OKT3-coated plates): partial reversal |
| IFN-α | failure | – | did not restore the proliferative ability | – |
| IL-6: cytokine | failure | – | did not restore the proliferative ability | – |
| lipopolysaccharide [LPS] | failure | – | did not restore the proliferative ability | restoration of proliferation of naive CD4+ T cells in the presence of Treg cells ([3]; Treg102, Treg164 or naturally occurring CD4+CD25+ Treg cells (FIG. 4A-B)): failed to restore the proliferation of naive CD4^+ T cells |
| Poly-G5: Poly-G oligonucleotide with phosphorothioate linkages (DNA dG*dG*dG*dG*dG) | – | Reversal of suppressive function; also recorded: entirely reversed; also recorded: could be reversed | – | – |
